Measured values as given in ChEMBL document CHEMBL5104103 (J Med Chem, 2022).
pIC50: −log10 of the molar value. Values after ≈ are worked out from the molar mass of the structure shown.

Legend:
[1] = Inhibition of anti-IgM-stimulated CD20+ B cell activation in human whole blood assessed as measuring CD69 expression level pretreated for 1 hr followed by anti-IgM stimulation measured after 18 hrs by flow cytometry
[2] = Clearance in rat at 2 mg/kg, iv; type: ADME, organism-based; details: in vivo
[3] = Clearance in human liver S9 fraction assessed as measuring per mg protein by LCMS/MS analysis; type: ADME, subcellular; details: read-out: CLH
[4] = Solubility of compound in PBS at pH 7 by LCMS/MS analysis; type: physicochemical
[5] = AUC in rat at 20 mg/kg, po or 2 mg/kg, iv; type: ADME, organism-based; design: dose 20 mg/kg, route po; details: in vivo, read-out: AUC
[6] = target: Voltage-gated inwardly rectifying potassium channel KCNH2 (Homo sapiens, UniProt Q12809); assay: Inhibition of hERG; type: toxicity
[7] = Cmax in rat at 20 mg/kg, po or 2 mg/kg, iv; type: ADME, organism-based; design: dose 20 mg/kg, route po; details: in vivo
[8] = Permeability across apical to basolateral membrane in human Caco-2 cells; type: ADME, cell-based; details: read-out: permeability
[9] = Oral bioavailability in rat at 20 mg/kg; type: ADME, organism-based; details: in vivo
[10] = Permeability across basolateral to apical membrane in human Caco-2 cells; type: ADME, cell-based; details: read-out: permeability
[11] = Drug concentration in plasma of collagen-induced arthritis Lewis rat model 20 mg/kg measured after 1 hr post-collection of plasma; type: ADME, organism-based
[12] = Drug concentration in plasma of collagen-induced arthritis Lewis rat model 20 mg/kg measured after 4 hrs post-collection of plasma; type: ADME, organism-based
[13] = target: T1, Tyrosine-protein kinase TXK (Homo sapiens, UniProt P42681); assay: Inhibition of RLK (unknown origin) using peptide substrate in presence of ATP
T1 sequence (P42681 whole entry): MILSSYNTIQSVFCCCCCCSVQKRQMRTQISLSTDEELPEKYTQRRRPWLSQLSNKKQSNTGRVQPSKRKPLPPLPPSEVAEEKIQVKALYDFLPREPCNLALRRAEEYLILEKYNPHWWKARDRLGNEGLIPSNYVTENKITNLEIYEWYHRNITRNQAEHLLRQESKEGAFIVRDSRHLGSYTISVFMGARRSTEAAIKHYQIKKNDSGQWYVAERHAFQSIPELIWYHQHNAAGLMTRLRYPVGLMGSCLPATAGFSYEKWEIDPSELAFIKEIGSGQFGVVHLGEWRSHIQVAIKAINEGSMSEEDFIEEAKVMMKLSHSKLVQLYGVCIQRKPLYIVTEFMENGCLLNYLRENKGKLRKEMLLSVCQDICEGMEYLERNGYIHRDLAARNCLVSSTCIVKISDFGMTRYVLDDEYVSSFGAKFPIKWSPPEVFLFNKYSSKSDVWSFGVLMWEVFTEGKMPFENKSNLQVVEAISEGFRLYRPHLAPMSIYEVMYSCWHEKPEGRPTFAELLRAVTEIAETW

[14] = target: T2, Tyrosine-protein kinase Tec (Homo sapiens, UniProt P42680); assay: Inhibition of TEC (unknown origin) using peptide substrate in presence of ATP
T2 sequence (P42680 whole entry): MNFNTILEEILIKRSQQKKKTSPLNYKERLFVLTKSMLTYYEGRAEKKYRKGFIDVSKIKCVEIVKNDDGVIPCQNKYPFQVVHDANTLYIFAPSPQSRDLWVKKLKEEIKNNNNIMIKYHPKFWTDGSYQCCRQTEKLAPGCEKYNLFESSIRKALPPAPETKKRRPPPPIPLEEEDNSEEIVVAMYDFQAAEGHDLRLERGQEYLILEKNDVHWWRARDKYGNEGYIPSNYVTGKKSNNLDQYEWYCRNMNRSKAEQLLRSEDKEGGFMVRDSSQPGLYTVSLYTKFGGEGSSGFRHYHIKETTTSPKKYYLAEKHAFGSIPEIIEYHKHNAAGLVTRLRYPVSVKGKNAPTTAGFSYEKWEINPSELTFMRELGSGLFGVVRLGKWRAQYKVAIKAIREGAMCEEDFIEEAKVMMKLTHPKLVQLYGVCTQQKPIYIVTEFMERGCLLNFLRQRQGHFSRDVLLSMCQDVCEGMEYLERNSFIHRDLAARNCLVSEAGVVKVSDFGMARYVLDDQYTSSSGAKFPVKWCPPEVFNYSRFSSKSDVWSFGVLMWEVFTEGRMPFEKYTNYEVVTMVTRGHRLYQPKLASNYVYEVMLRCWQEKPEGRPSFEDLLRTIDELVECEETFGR

[15] = target: T3, Cytoplasmic tyrosine-protein kinase BMX (Homo sapiens, UniProt P51813); assay: Inhibition of BMX (unknown origin) using peptide substrate in presence of ATP
T3 sequence (P51813 whole entry): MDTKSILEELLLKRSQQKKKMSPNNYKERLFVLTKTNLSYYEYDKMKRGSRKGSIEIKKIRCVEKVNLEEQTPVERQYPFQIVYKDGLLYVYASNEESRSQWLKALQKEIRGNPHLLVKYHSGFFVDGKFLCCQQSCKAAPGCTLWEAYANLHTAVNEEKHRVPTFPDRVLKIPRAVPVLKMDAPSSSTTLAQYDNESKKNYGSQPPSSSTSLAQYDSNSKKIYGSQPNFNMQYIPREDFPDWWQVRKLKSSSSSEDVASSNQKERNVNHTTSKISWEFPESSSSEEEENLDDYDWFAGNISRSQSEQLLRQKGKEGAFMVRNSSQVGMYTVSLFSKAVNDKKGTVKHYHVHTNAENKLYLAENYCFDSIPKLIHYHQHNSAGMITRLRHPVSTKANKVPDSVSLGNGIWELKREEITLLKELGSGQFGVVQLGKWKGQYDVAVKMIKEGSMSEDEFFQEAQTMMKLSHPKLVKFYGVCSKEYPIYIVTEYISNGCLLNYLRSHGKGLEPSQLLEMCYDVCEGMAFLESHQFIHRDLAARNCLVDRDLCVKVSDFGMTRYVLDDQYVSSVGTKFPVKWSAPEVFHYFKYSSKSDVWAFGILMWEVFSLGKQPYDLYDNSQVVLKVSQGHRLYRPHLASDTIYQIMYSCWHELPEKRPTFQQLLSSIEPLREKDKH

[16] = Drug concentration in plasma of collagen-induced arthritis Lewis rat model 20 mg/kg measured after 12 hrs post-collection of plasma; type: ADME, organism-based
[17] = Drug concentration in plasma of collagen-induced arthritis Lewis rat model 20 mg/kg measured after 24 hrs post-collection of plasma; type: ADME, organism-based; details: in vivo, BLD = below limit of detection
[18] = target: Tyrosine-protein kinase Blk (Homo sapiens, UniProt P51451); assay: Inhibition of BLK (unknown origin) using peptide substrate in presence of ATP
Sequence of Tyrosine-protein kinase Blk (P51451 whole entry): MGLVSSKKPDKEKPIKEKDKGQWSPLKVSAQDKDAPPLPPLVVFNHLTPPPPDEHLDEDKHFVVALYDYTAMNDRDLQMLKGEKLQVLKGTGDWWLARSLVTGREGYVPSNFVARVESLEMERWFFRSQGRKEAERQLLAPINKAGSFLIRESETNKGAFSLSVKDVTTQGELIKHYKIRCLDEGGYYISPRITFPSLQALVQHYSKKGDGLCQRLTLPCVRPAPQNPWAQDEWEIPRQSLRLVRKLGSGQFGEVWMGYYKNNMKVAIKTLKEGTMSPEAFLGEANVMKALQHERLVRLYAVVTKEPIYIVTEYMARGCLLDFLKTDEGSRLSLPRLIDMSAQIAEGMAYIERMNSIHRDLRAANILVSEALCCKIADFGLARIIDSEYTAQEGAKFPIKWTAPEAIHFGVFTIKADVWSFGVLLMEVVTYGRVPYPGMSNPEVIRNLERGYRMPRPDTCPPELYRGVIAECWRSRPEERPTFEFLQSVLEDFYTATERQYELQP

Sequence of Voltage-gated inwardly rectifying potassium channel KCNH2 (Q12809 whole entry): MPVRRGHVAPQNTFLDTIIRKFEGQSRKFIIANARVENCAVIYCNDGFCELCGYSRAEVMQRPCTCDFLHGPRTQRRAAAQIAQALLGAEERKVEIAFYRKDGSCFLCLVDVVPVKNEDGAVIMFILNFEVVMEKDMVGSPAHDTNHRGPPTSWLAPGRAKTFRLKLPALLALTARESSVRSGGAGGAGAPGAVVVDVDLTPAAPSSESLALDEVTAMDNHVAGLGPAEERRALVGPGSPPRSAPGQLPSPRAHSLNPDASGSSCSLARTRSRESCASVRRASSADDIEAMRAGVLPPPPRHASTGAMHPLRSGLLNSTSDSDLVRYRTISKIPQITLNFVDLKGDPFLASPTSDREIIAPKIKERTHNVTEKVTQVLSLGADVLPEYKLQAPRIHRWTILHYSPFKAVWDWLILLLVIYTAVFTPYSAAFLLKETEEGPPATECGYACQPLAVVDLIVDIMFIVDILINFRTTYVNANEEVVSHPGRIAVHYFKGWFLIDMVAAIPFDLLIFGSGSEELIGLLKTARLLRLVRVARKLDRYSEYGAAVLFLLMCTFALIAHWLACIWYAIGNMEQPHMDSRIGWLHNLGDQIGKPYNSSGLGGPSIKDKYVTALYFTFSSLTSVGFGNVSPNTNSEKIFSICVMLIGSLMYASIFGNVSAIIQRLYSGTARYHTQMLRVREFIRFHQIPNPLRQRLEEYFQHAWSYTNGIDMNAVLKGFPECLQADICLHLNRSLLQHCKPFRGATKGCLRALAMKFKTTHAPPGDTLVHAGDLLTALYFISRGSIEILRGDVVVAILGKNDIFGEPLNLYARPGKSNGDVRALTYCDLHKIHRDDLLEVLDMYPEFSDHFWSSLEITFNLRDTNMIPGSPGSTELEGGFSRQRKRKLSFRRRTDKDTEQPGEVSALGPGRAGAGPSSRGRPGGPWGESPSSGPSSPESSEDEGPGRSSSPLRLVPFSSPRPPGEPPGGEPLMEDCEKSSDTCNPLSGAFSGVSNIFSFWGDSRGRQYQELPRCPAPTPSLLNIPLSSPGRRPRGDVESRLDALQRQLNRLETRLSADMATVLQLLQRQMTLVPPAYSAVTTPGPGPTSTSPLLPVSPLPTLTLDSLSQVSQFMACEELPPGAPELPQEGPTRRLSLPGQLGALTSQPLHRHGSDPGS

Row | SMILES | pIC50 [1] | microsomal CLint [3] | solubility [4] | Papp A→B [8] | Papp B→A [10] | further results
1 | CC(C)(N)/C=C(\C#N)C(=O)N1CCC[C@@H](n2nc(-c3ccc(Oc4ccccc4)cc3F)c3c(N)ncnc32)C1 | 6.44 |  |  |  |  | 
2 | C[C@@H]1CN(C(C)(C)/C=C(\C#N)C(=O)N2CCC[C@@H](n3nc(-c4ccc(Oc5ccccc5)cc4F)c4c(N)ncnc43)C2)C[C@H](C)N1C | 6.89 | 14 µL/min/mg | 263 µM (≈ 171 µg/mL) | 0.3 ×10⁻⁶ cm/s | 2.5 ×10⁻⁶ cm/s | clearance [2]: 91 mL/min/kg; AUC [5]: 2460 ng·h/mL; inhibition (INH) [6]: Active; Cmax [7]: 392 ng/mL; bioavailability [9]: 67%
3 | CC1(/C=C(\C#N)C(=O)N2CCC[C@@H](n3nc(-c4ccc(Oc5ccccc5)cc4F)c4c(N)ncnc43)C2)COC1 | 6.65 |  |  |  |  | 
4 | CC(=O)N1CCN(C(C)(C)/C=C(\C#N)C(=O)N2CCC[C@@H](n3nc(-c4ccc(Oc5ccccc5)cc4F)c4c(N)ncnc43)C2)CC1 | 6.71 |  | 31 µM (≈ 20.2 µg/mL) | 0.6 ×10⁻⁶ cm/s | 22 ×10⁻⁶ cm/s | 
5 | N#C/C(=C/C1CC1)C(=O)N1CCC[C@@H]1Cn1nc(-c2ccc(Oc3ccccc3)cc2F)c2c(N)ncnc21 | 6.71 |  |  |  |  | 
6 | CC(C)(/C=C(\C#N)C(=O)N1CCC[C@@H](n2nc(-c3ccc(Oc4ccccc4)cc3F)c3c(N)ncnc32)C1)N1CCN(C2COC2)CC1 [RILZABRUTINIB] | 6.91 | 23 µL/min/mg | 125 µM (≈ 83.2 µg/mL) | 1.7 ×10⁻⁶ cm/s | 5.3 ×10⁻⁶ cm/s | concentration at 1 h [11]: 128 ng/mL; clearance [2]: 66 mL/min/kg; concentration at 4 h [12]: 106 ng/mL; AUC [5]: 622 ng·h/mL; pIC50 [13]: 8.92; pIC50 [14]: 9.10; Cmax [7]: 270 ng/mL; pIC50 [15]: 9.00; bioavailability [9]: 12.3%; concentration at 12 h [16]: 4.6 ng/mL; Cp [17]: Bld; pIC50 [18]: 8.20
7 | COCCN1CCN(C(C)(C)/C=C(\C#N)C(=O)N2CCC[C@@H](n3nc(-c4ccc(Oc5ccccc5)cc4F)c4c(N)ncnc43)C2)CC1 | 6.77 | 49 µL/min/mg | 210 µM (≈ 140 µg/mL) | 0.2 ×10⁻⁶ cm/s | 6 ×10⁻⁶ cm/s | 
8 | COC(=O)N1CCN(C(C)(C)/C=C(\C#N)C(=O)N2CCC[C@@H](n3nc(-c4ccc(Oc5ccccc5)cc4F)c4c(N)ncnc43)C2)CC1 | 6.75 | 68 µL/min/mg | 1.1 µM (≈ 0.735 µg/mL) | 3.2 ×10⁻⁶ cm/s | 24 ×10⁻⁶ cm/s | clearance [2]: 89 mL/min/kg; AUC [5]: 432 ng·h/mL; Cmax [7]: 142 ng/mL; bioavailability [9]: 11.5%
9 | CC(C)(/C=C(\C#N)C(=O)N1CCC[C@@H](n2nc(-c3ccc(Oc4ccccc4)cc3F)c3c(N)ncnc32)C1)CO | 6.09 |  |  |  |  | 
10 | CN1CCN(C(C)(C)/C=C(\C#N)C(=O)N2CCC[C@@H](n3nc(-c4ccc(Oc5ccccc5)cc4F)c4c(N)ncnc43)C2)CC1=O | 6.89 | 80 µL/min/mg | 90 µM (≈ 57.4 µg/mL) | 0.4 ×10⁻⁶ cm/s | 5.5 ×10⁻⁶ cm/s | clearance [2]: 73 mL/min/kg; AUC [5]: 528 ng·h/mL; Cmax [7]: 345 ng/mL; bioavailability [9]: 10.9%
11 | C[C@@H]1CN(C(C)(C)/C=C(\C#N)C(=O)N2CCC[C@@H](n3nc(-c4ccc(Oc5ccccc5)cc4F)c4c(N)ncnc43)C2)C[C@H](C)N1 | 6.35 |  |  |  |  | 
12 | CC(C)(/C=C(\C#N)C(=O)N1CCC[C@@H](n2nc(-c3ccc(Oc4ccccc4)cc3F)c3c(N)ncnc32)C1)N1CCOCC1 | 7.78 |  |  |  |  | 
13 | CN(C)C(C)(C)/C=C(\C#N)C(=O)N1CCC[C@@H](n2nc(-c3ccc(Oc4ccccc4)cc3F)c3c(N)ncnc32)C1 | 6.80 |  |  |  |  | 
14 | CC(C)(/C=C(\C#N)C(=O)N1CCC[C@@H](n2nc(-c3ccc(Oc4ccccc4)cc3F)c3c(N)ncnc32)C1)N1CCNC(=O)C1 | 6.42 |  |  | 1 ×10⁻⁶ cm/s | 25.8 ×10⁻⁶ cm/s | 
15 | CC(C)(/C=C(\C#N)C(=O)N1CCC[C@@H](n2nc(-c3ccc(Oc4ccccc4)cc3F)c3c(N)ncnc32)C1)N1CCNCC1 | 6.40 |  | 238 µM (≈ 145 µg/mL) | 0.07 ×10⁻⁶ cm/s | 3.4 ×10⁻⁶ cm/s | 
